Reference: the NIST ThermoML archive (doi:10.1016/j.fluid.2015.04.017)

Test: xn = mol fraction of the nth substance listed
Conditions: 101 kPa, Liquid; for viscosity: Concentric cylinders viscometry; for mass density: Vibrating tube method

CCOC(=O)C(C)O (stereo not drawn) [DL-ethyl lactate] + CCC(C)=O
Conditions | mass density [kg/m3] | viscosity [mPa·s]
288.15 K, x1 = 0.0999 | 840.096 | 0.5127
288.15 K, x1 = 0.1999 | 868.347 | 0.6157
288.15 K, x1 = 0.3001 | 894.852 | 0.7578
288.15 K, x1 = 0.4001 | 919.605 | 0.9204
288.15 K, x1 = 0.5 | 942.723 | 1.128
288.15 K, x1 = 0.5998 | 964.577 | 1.384
288.15 K, x1 = 0.6999 | 985.434 | 1.707
288.15 K, x1 = 0.8 | 1005.13 | 2.113
288.15 K, x1 = 0.9001 | 1023.3 | 2.63
288.15 K, x1 = 1 | 1039.28 | 3.207
293.15 K, x1 = 0.0999 | 834.849 | 0.4886
293.15 K, x1 = 0.1999 | 863.068 | 0.5824
293.15 K, x1 = 0.3001 | 889.537 | 0.7086
293.15 K, x1 = 0.4001 | 914.27 | 0.8532
293.15 K, x1 = 0.5 | 937.369 | 1.035
293.15 K, x1 = 0.5998 | 959.204 | 1.254
293.15 K, x1 = 0.6999 | 980.043 | 1.527
293.15 K, x1 = 0.8 | 999.721 | 1.862
293.15 K, x1 = 0.9001 | 1017.88 | 2.287
293.15 K, x1 = 1 | 1033.84 | 2.752
298.15 K, x1 = 0.0999 | 829.575 | 0.4651
298.15 K, x1 = 0.1999 | 857.764 | 0.5514
298.15 K, x1 = 0.3001 | 884.198 | 0.6643
298.15 K, x1 = 0.4001 | 908.905 | 0.7937
298.15 K, x1 = 0.5 | 931.98 | 0.9526
298.15 K, x1 = 0.5998 | 953.795 | 1.141
298.15 K, x1 = 0.6999 | 974.621 | 1.375
298.15 K, x1 = 0.8 | 994.289 | 1.658
298.15 K, x1 = 0.9001 | 1012.45 | 2.007
298.15 K, x1 = 1 | 1028.39 | 2.39
303.15 K, x1 = 0.0999 | 824.277 | 0.4429
303.15 K, x1 = 0.1999 | 852.434 | 0.5214
303.15 K, x1 = 0.3001 | 878.836 | 0.6229
303.15 K, x1 = 0.4001 | 903.522 | 0.7397
303.15 K, x1 = 0.5 | 926.577 | 0.8816
303.15 K, x1 = 0.5998 | 948.373 | 1.046
303.15 K, x1 = 0.6999 | 969.181 | 1.248
303.15 K, x1 = 0.8 | 988.835 | 1.489
303.15 K, x1 = 0.9001 | 1006.99 | 1.783
303.15 K, x1 = 1 | 1022.92 | 2.097
308.15 K, x1 = 0.0999 | 818.947 | 0.4211
308.15 K, x1 = 0.1999 | 847.072 | 0.4939
308.15 K, x1 = 0.3001 | 873.449 | 0.5848
308.15 K, x1 = 0.4001 | 898.112 | 0.6909
308.15 K, x1 = 0.5 | 921.146 | 0.8175
308.15 K, x1 = 0.5998 | 942.923 | 0.9624
308.15 K, x1 = 0.6999 | 963.714 | 1.138
308.15 K, x1 = 0.8 | 983.356 | 1.345
308.15 K, x1 = 0.9001 | 1001.5 | 1.595
308.15 K, x1 = 1 | 1017.42 | 1.858
313.15 K, x1 = 0.0999 | 813.582 | 0.4001
313.15 K, x1 = 0.1999 | 841.677 | 0.4671
313.15 K, x1 = 0.3001 | 868.027 | 0.5492
313.15 K, x1 = 0.4001 | 892.67 | 0.6463
313.15 K, x1 = 0.5 | 915.688 | 0.7602
313.15 K, x1 = 0.5998 | 937.45 | 0.8883
313.15 K, x1 = 0.6999 | 958.226 | 1.042
313.15 K, x1 = 0.8 | 977.854 | 1.222
313.15 K, x1 = 0.9001 | 995.984 | 1.436
313.15 K, x1 = 1 | 1011.9 | 1.658
318.15 K, x1 = 0.0999 | 808.184 | 0.3798
318.15 K, x1 = 0.1999 | 836.25 | 0.4415
318.15 K, x1 = 0.3001 | 862.576 | 0.5165
318.15 K, x1 = 0.4001 | 887.197 | 0.6052
318.15 K, x1 = 0.5 | 910.198 | 0.709
318.15 K, x1 = 0.5998 | 931.944 | 0.8229
318.15 K, x1 = 0.6999 | 952.707 | 0.9589
318.15 K, x1 = 0.8 | 972.323 | 1.116
318.15 K, x1 = 0.9001 | 990.445 | 1.3
318.15 K, x1 = 1 | 1006.36 | 1.491
323.15 K, x1 = 0.0999 | 802.753 | 0.3598
323.15 K, x1 = 0.1999 | 830.788 | 0.4212
323.15 K, x1 = 0.3001 | 857.09 | 0.4897
323.15 K, x1 = 0.4001 | 881.694 | 0.5699
323.15 K, x1 = 0.5 | 904.683 | 0.6649
323.15 K, x1 = 0.5998 | 926.419 | 0.7673
323.15 K, x1 = 0.6999 | 947.168 | 0.8872
323.15 K, x1 = 0.8 | 966.77 | 1.028
323.15 K, x1 = 0.9001 | 984.879 | 1.193
323.15 K, x1 = 1 | 1000.79 | 1.349

CCOC(=O)C(C)O (stereo not drawn) [DL-ethyl lactate] + CN1CCCC1=O
Conditions | mass density [kg/m3] | viscosity [mPa·s]
288.15 K, x1 = 0.0999 | 1040.68 | 2.34
288.15 K, x1 = 0.2 | 1041.7 | 2.601
288.15 K, x1 = 0.3001 | 1042.78 | 2.89
288.15 K, x1 = 0.4 | 1043.43 | 3.122
288.15 K, x1 = 0.4997 | 1043.89 | 3.352
288.15 K, x1 = 0.6 | 1043.93 | 3.508
288.15 K, x1 = 0.7002 | 1043.56 | 3.581
288.15 K, x1 = 0.7999 | 1042.82 | 3.567
288.15 K, x1 = 0.8997 | 1041.57 | 3.456
288.15 K, x1 = 1 | 1039.28 | 3.207
293.15 K, x1 = 0.0999 | 1036.17 | 2.125
293.15 K, x1 = 0.2 | 1037.14 | 2.347
293.15 K, x1 = 0.3001 | 1038.17 | 2.585
293.15 K, x1 = 0.4 | 1038.75 | 2.772
293.15 K, x1 = 0.4997 | 1039.12 | 2.952
293.15 K, x1 = 0.6 | 1039.06 | 3.066
293.15 K, x1 = 0.7002 | 1038.56 | 3.11
293.15 K, x1 = 0.7999 | 1037.68 | 3.08
293.15 K, x1 = 0.8997 | 1036.28 | 2.975
293.15 K, x1 = 1 | 1033.84 | 2.75
298.15 K, x1 = 0.0999 | 1031.66 | 1.941
298.15 K, x1 = 0.2 | 1032.59 | 2.132
298.15 K, x1 = 0.3001 | 1033.56 | 2.331
298.15 K, x1 = 0.4 | 1034.06 | 2.482
298.15 K, x1 = 0.4997 | 1034.35 | 2.624
298.15 K, x1 = 0.6 | 1034.17 | 2.706
298.15 K, x1 = 0.7002 | 1033.55 | 2.726
298.15 K, x1 = 0.7999 | 1032.53 | 2.692
298.15 K, x1 = 0.8997 | 1030.98 | 2.591
298.15 K, x1 = 1 | 1028.39 | 2.39
303.15 K, x1 = 0.0999 | 1027.16 | 1.785
303.15 K, x1 = 0.2 | 1028.05 | 1.947
303.15 K, x1 = 0.3001 | 1028.95 | 2.113
303.15 K, x1 = 0.4 | 1029.38 | 2.235
303.15 K, x1 = 0.4997 | 1029.57 | 2.349
303.15 K, x1 = 0.6 | 1029.29 | 2.41
303.15 K, x1 = 0.7002 | 1028.53 | 2.416
303.15 K, x1 = 0.7999 | 1027.37 | 2.378
303.15 K, x1 = 0.8997 | 1025.67 | 2.284
303.15 K, x1 = 1 | 1022.92 | 2.097
308.15 K, x1 = 0.0999 | 1022.66 | 1.646
308.15 K, x1 = 0.2 | 1023.5 | 1.786
308.15 K, x1 = 0.3001 | 1024.34 | 1.927
308.15 K, x1 = 0.4 | 1024.69 | 2.026
308.15 K, x1 = 0.4997 | 1024.79 | 2.116
308.15 K, x1 = 0.6 | 1024.38 | 2.16
308.15 K, x1 = 0.7002 | 1023.5 | 2.156
308.15 K, x1 = 0.7999 | 1022.2 | 2.115
308.15 K, x1 = 0.8997 | 1020.34 | 2.026
308.15 K, x1 = 1 | 1017.42 | 1.858
313.15 K, x1 = 0.0999 | 1018.16 | 1.525
313.15 K, x1 = 0.2 | 1018.95 | 1.646
313.15 K, x1 = 0.3001 | 1019.72 | 1.765
313.15 K, x1 = 0.4 | 1019.99 | 1.845
313.15 K, x1 = 0.4997 | 1020 | 1.918
313.15 K, x1 = 0.6 | 1019.48 | 1.948
313.15 K, x1 = 0.7002 | 1018.46 | 1.937
313.15 K, x1 = 0.7999 | 1017.01 | 1.896
313.15 K, x1 = 0.8997 | 1015 | 1.816
313.15 K, x1 = 1 | 1011.9 | 1.658
318.15 K, x1 = 0.0999 | 1013.66 | 1.417
318.15 K, x1 = 0.2 | 1014.4 | 1.523
318.15 K, x1 = 0.3001 | 1015.1 | 1.625
318.15 K, x1 = 0.4 | 1015.29 | 1.689
318.15 K, x1 = 0.4997 | 1015.19 | 1.748
318.15 K, x1 = 0.6 | 1014.55 | 1.768
318.15 K, x1 = 0.7002 | 1013.4 | 1.751
318.15 K, x1 = 0.7999 | 1011.81 | 1.712
318.15 K, x1 = 0.8997 | 1009.64 | 1.636
318.15 K, x1 = 1 | 1006.36 | 1.491
323.15 K, x1 = 0.0999 | 1009.17 | 1.329
323.15 K, x1 = 0.2 | 1009.85 | 1.422
323.15 K, x1 = 0.3001 | 1010.48 | 1.512
323.15 K, x1 = 0.4 | 1010.58 | 1.563
323.15 K, x1 = 0.4997 | 1010.38 | 1.615
323.15 K, x1 = 0.6 | 1009.62 | 1.62
323.15 K, x1 = 0.7002 | 1008.34 | 1.602
323.15 K, x1 = 0.7999 | 1006.6 | 1.568
323.15 K, x1 = 0.8997 | 1004.28 | 1.492
323.15 K, x1 = 1 | 1000.79 | 1.349
